Source: patent US8063221B2, “Aminoquinolones as GSK-3 inhibitors” (Kyorin Pharmaceutical Co., Ltd., priority 2006, dated 2011)
Converted amounts (≈) assume the structure as drawn. Like-named read-outs stand apart in the source and are kept apart here.

What was measured:
[1] = target: T1, recombinant full-length human GSK3β (Homo sapiens, UniProt P49841); test: Luciferase-coupled cell-free GSK3β kinase assay; assay type: biochemical
T1 construct: recombinant full-length human GSK3β (Upstate); purchased Upstate
Protocol: For compounds in Tables 1 and 2, IC50 (μM) for GSK3β enzyme in cell free assay is provided as follows:
Luciferase-Coupled Protein Kinase Assays
All coupled-luciferase assays are performed by using a brief incubation with firefly luciferase (Promega) after completion of the kinase assay. KinaseGlo Plus is used for reading kinase reactions with ATP>10 μM, KinaseGlo for ATP <10 μM. The assay volume in a 384-well plate for the kinase reaction is 30 microliters.
10-25 ng of recombinant full-length human GSK3β (Upstate) is incubated in the presence or absence of compound at varying concentrations for 1 hour at 30 degrees Celsius in 20 mM MOPS, pH 7.0, 10 mM magnesium acetate, 0.2 mM EDTA, 2 mM EGTA, 30 mM magnesium chloride, 62.5 μM phospho-glycogen synthase peptide-2, 5 μM ATP, 10 mM β-glycerol phosphate, 1 mM sodium orthovanadate and 1 mM dithiothreitol. Proceed to KinaseGlo luciferase reaction (see below).
Following the completion of the kinase reaction an equal volume of KinaseGlo or KinaseGlo Plus luciferase reagent (Promega) is added and the luminescence read using a luminescence plate reader within 5-10 minutes. Compound activity is expressed as % inhibition relative to maximal inhibition observed at the maximal dose and IC50 values then calculated using curve fitting software (GraphPad Prizm).

[2] = test system: E. coli, ATCC8739; test: Antibacterial activity (MIC), E. coli; assay type: cell-based; settings: Escherichia coli
Source text: (§1) As used herein, a minimum inhibitory concentration (MIC) for bacterial growth assay is the lowest level of a compound needed to cause an inhibition to bacterial growth in culture medium. In certain embodiments, the antibacterial activity of compounds herein, measured as MIC.
(§2) In certain embodiments, GSK3 inhibitors provided herein are substantially free of antibacterial activity or having very low antibacterial activity. The antibacterial activity can be measured by methods known in the art by estimating a minimum inhibitory concentration (MIC) for test compounds. A MIC is the lowest level of a compound needed to cause an inhibition to bacterial growth in a culture medium. […] (Clinical and Laboratory Standards Institute. Methods for Dilution Antimicrobial Susceptibility Tests for Bacteria That Grow Aerobically; Approved Standard-Sixth Edition: CLSI document […]. CLSI, Wayne, Pa. (2003))
(§3) Antibacterial activity for E. coli, ATCC8739 andS. aureus Smith expressed as MIC (μM) is provided as follows: […]

[3] = test system: S. aureus Smith; test: Antibacterial activity (MIC), S. aureus; assay type: cell-based; settings: Staphylococcus aureus
Source text: as §1, §2, §3

[4] = ATCC8739, Table 2, E. coli ATCC8739, read-out: Antimicrobial MIC [μM] E. Coli
[5] = Table 2, S. aureus Smith, read-out: Antimicrobial MIC [μM] S. aureus
[6] = ATCC8739, Table 1, E. coli ATCC8739, read-out: Antibacterial MIC (μM) E.Coli
[7] = Table 1, read-out: Antibacterial MIC (μM) S. aureus Smith

T1 sequence (P49841 whole entry): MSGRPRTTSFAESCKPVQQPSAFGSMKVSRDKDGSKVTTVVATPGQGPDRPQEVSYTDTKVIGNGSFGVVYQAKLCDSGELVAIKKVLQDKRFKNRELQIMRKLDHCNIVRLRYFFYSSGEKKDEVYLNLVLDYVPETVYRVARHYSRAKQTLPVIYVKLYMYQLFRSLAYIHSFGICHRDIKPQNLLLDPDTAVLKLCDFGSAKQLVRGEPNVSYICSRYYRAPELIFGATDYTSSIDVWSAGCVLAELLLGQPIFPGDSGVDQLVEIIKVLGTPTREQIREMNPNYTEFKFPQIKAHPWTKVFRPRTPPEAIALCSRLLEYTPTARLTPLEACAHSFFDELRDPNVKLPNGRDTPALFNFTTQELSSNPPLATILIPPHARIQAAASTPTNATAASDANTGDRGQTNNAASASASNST

IC50 ([1]; Table 2) [nM] | MIC [2, 4] [µM] | MIC [3, 5] [µM] | IC50 ([1]; Table 1) [nM] | MIC [2, 6] [µM] | MIC [3, 7] [µM] | Structure (SMILES) | MIC ([2]; ATCC8739, read-out: Antibacterial MIC (μM) E.Coli) [µM] | MIC ([3]; read-out: Antibacterial MIC (μM) S. aureus Smith) [µM]
< 100 | 0.5 to 10 (≈ 0.225 to 4.49 µg/mL) | 0.5 to 10 (≈ 0.225 to 4.49 µg/mL) | – | – | – | CC1COc2c(NCCNc3cc(F)cc(F)n3)c(F)c(N)c3c(=O)c(C(=O)O)cn1c23 (stereo not drawn) [compound 15] | – | –
– | – | – | 100 to 500 | > 50 | > 50 | Nc1c(F)c(NCCNc2ccccn2)c(F)c2c1c(=O)ccn2C1CC1 [compound 15] | – | –
– | – | – | 500 to 1000 | 0.5 to 10 (≈ 0.208 to 4.15 µg/mL) | < 0.5 | Nc1c(F)c(NCCc2ccc(O)cc2)c(F)c2c1c(=O)c(C(=O)O)cn2C1CC1 [compound 16] | – | –
< 100 | 10 to 50 (≈ 4.51 to 22.6 µg/mL) | 0.5 to 10 (≈ 0.226 to 4.51 µg/mL) | – | – | – | C[C@H]1COc2c(NCCCn3cnc4ccccc43)c(F)c(N)c3c(=O)c(C(=O)O)cn1c23 [compound 19] | – | –
– | – | – | 100 to 500 | 0.5 to 10 (≈ 0.218 to 4.35 µg/mL) | 0.5 to 10 (≈ 0.218 to 4.35 µg/mL) | Nc1c(F)c(NCCc2ccc(F)cc2F)c(F)c2c1c(=O)c(C(=O)O)cn2C1CC1 [compound 19] | – | –
100 to 500 | 10 to 50 (≈ 4.01 to 20.1 µg/mL) | 0.5 to 10 (≈ 0.201 to 4.01 µg/mL) | – | – | – | C[C@H]1COc2c(NCCCn3ccnc3)c(F)c(N)c3c(=O)c(C(=O)O)cn1c23 [compound 20] | – | –
– | – | – | 100 to 500 | 10 to 50 (≈ 4.27 to 21.4 µg/mL) | 0.5 to 10 (≈ 0.214 to 4.27 µg/mL) | Nc1c(F)c(NCCCCc2ccccc2)c(F)c2c1c(=O)c(C(=O)O)cn2C1CC1 [compound 20] | – | –
– | – | – | 500 to 1000 | 0.5 to 10 (≈ 0.219 to 4.38 µg/mL) | 0.5 to 10 (≈ 0.219 to 4.38 µg/mL) | CC(C)(C)OC(=O)NCCNc1c(F)c(N)c2c(=O)c(C(=O)O)cn(C3CC3)c2c1F [compound 21] | – | –
100 to 500 | > 50 | 0.5 to 10 (≈ 0.197 to 3.93 µg/mL) | – | – | – | CC(C)OCCCNc1c(F)c(N)c2c(=O)c(C(=O)O)cn3c2c1OC[C@@H]3C [compound 21] | – | –
100 to 500 | 0.5 to 10 (≈ 0.209 to 4.18 µg/mL) | 0.5 to 10 (≈ 0.209 to 4.18 µg/mL) | – | – | – | C[C@H]1COc2c(NCCCN3CCCC3=O)c(F)c(N)c3c(=O)c(C(=O)O)cn1c23 [compound 23] | – | –
– | – | – | < 100 | 0.5 to 10 (≈ 0.202 to 4.03 µg/mL) | 0.5 to 10 (≈ 0.202 to 4.03 µg/mL) | Nc1c(F)c(NCCCn2ccnc2)c(F)c2c1c(=O)c(C(=O)O)cn2C1CC1 [compound 23] | – | –
100 to 500 | 0.5 to 10 (≈ 0.221 to 4.41 µg/mL) | 0.5 to 10 (≈ 0.221 to 4.41 µg/mL) | – | – | – | CC1(C)COc2c(NCCNc3ccccn3)c(F)c(N)c3c(=O)c(C(=O)O)cn(c23)C1 [compound 24] | – | –
< 100 | 0.5 to 10 (≈ 0.22 to 4.39 µg/mL) | 0.5 to 10 (≈ 0.22 to 4.39 µg/mL) | – | – | – | CC1(C)COc2c(NCCCc3ccccc3)c(F)c(N)c3c(=O)c(C(=O)O)cn(c23)C1 [compound 25] | – | –
< 100 | 10 to 50 (≈ 4.29 to 21.5 µg/mL) | 10 to 50 (≈ 4.29 to 21.5 µg/mL) | – | – | – | CC1(C)COc2c(NCCCn3ccnc3)c(F)c(N)c3c(=O)c(C(=O)O)cn(c23)C1 [compound 26] | – | –
– | – | – | 100 to 500 | > 50 | > 50 | Nc1c(F)c(NCCCn2ccnc2)c(F)c2c1c(=O)ccn2C1CC1 [compound 26] | – | –
– | – | – | 100 to 500 | > 50 | > 50 | Nc1c(F)c(NCCc2c[nH]c3ccccc23)c(F)c2c1c(=O)ccn2C1CC1 [compound 28] | – | –
– | – | – | 100 to 500 | > 50 | > 50 | CC(C)(C)OC(=O)NCCNc1c(F)c(N)c2c(=O)ccn(C3CC3)c2c1F [compound 29] | – | –
100 to 500 | 10 to 50 (≈ 4.51 to 22.6 µg/mL) | 10 to 50 (≈ 4.51 to 22.6 µg/mL) | – | – | – | C[C@@H]1COc2c(NCCCn3cnc4ccccc43)c(F)c(N)c3c(=O)c(C(=O)O)cn1c23 [compound 32] | – | –
< 100 | 10 to 50 (≈ 4.77 to 23.8 µg/mL) | 10 to 50 (≈ 4.77 to 23.8 µg/mL) | – | – | – | CC1(C)COc2c(NCCNc3cccc4ccccc34)c(F)c(N)c3c(=O)c(C(=O)O)cn1c23 [compound 36] | – | –
< 100 | 0.5 to 10 (≈ 0.233 to 4.65 µg/mL) | 0.5 to 10 (≈ 0.233 to 4.65 µg/mL) | – | – | – | CC1(C)COc2c(NCCCn3cnc4ccccc43)c(F)c(N)c3c(=O)c(C(=O)O)cn1c23 [compound 37] | – | –

Structure (SMILES) | IC50 ([1]; Table 2) [nM] | MIC [2, 4] [µM] | MIC [3, 5] [µM] | IC50 ([1]; Table 1) [nM] | MIC [2, 6] [µM] | MIC [3, 7] [µM] | MIC ([2]; ATCC8739, read-out: Antibacterial MIC (μM) E.Coli) [µM] | MIC ([3]; read-out: Antibacterial MIC (μM) S. aureus Smith) [µM]
CC1(C)COc2c(NCCNc3ccccn3)c(F)c(N)c3c(=O)c(C(=O)O)cn1c23 [compound 16] | < 100 | > 50 | > 50 | – | – | – | – | –
CC(C)OCCCNc1c(F)c(N)c2c(=O)c(C(=O)O)cn(C3CC3)c2c1F [compound 17] | – | – | – | 100 to 500 | – | – | 0.5 to 10 (≈ 0.198 to 3.95 µg/mL) | 0.5 to 10 (≈ 0.198 to 3.95 µg/mL)
C[C@@H]1COc2c(NCCNc3ccccn3)c(F)c(N)c3c(=O)c(C(=O)O)cn1c23 [compound 30] | 500 to 1000 | > 50 | > 50 | – | – | – | – | –
